Measurements: ChEMBL document CHEMBL1201862, “PubChem BioAssay data set” (2004)
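Growth conditions: 96-well plates. Treatment: test compound, 48 hours, 5 concentrations. Analysis: linear interpolation between bracketing concentrations; unreached endpoints set to highest concentration. GI50 marks 50% less growth.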 Activity calls are given as the source filed them. No stated cut-off is given here; in the data, active = GI50 up to about 1.1 µM and inactive = higher.

Tests used:
Test in all cases: inhibition of tumour cell growth, NCI panel, 48 h
786-0 = system: 786-0
A549 = system: A549
HL-60 = system: HL-60
HT-29 = system: HT-29
K562 = system: K562
KM12 = system: KM12
LOX IMVI = system: LOX IMVI
MOLT-4 = system: MOLT-4
NCI-H226 = system: NCI-H226
OVCAR-5 = system: OVCAR-5
OVCAR-8 = system: OVCAR-8
RPMI-8226 = system: RPMI-8226
SF-295 = system: SF-295
SK-OV-3 = system: SK-OV-3
SN12C = system: SN12C
SR = system: SR
SW-620 = system: SW-620
TK-10 = system: TK-10
SK-MEL-5 = system: SK-MEL-5

Measured: GI50

CCOC(=O)C1C(c2ccc([N+](=O)[O-])cc2)NC(c2ccc([N+](=O)[O-])cc2)C(C(=O)OC)S1(=O)=O (configuration not stated)
inactive: 786-0 > 100 µM | A549 > 100 µM | HL-60 > 100 µM | HT-29 > 100 µM | K562 > 100 µM | KM12 > 100 µM | LOX IMVI > 100 µM | MOLT-4 > 100 µM | NCI-H226 > 100 µM | OVCAR-5 > 100 µM | OVCAR-8 > 100 µM | RPMI-8226 > 100 µM | SF-295 > 100 µM | SK-OV-3 > 100 µM | SN12C > 100 µM | SR > 100 µM | SW-620 > 100 µM | TK-10 > 100 µM

CCN1CCC(O)(/C=C/c2ccc(OC)cc2)C(C(=O)/C=C/c2ccc(OC)cc2)C1 (configuration not stated)
inactive: 786-0 4.03 µM | A549 16.6 µM | HL-60 3.15 µM | HT-29 7.16 µM | K562 2.75 µM | KM12 7.8 µM | LOX IMVI 2.37 µM | MOLT-4 2.72 µM | NCI-H226 16 µM | OVCAR-5 15.2 µM | OVCAR-8 > 10 µM | RPMI-8226 2.26 µM | SF-295 11.8 µM | SK-OV-3 10.6 µM | SN12C 14.8 µM | SR 3.46 µM | SW-620 4.53 µM | TK-10 13.8 µM

COc1ccc(C2CC(c3cc(C)ccc3O)=NC(N)=N2)cc1 (configuration not stated)
inactive: 786-0 > 100 µM | A549 > 100 µM | HL-60 > 100 µM | HT-29 > 100 µM | K562 > 100 µM | KM12 > 100 µM | LOX IMVI > 100 µM | MOLT-4 > 100 µM | NCI-H226 > 100 µM | OVCAR-5 > 100 µM | OVCAR-8 > 100 µM | RPMI-8226 > 100 µM | SF-295 > 100 µM | SK-OV-3 > 100 µM | SN12C > 100 µM | SR > 100 µM | SW-620 > 100 µM | TK-10 > 100 µM

O=C(CSc1nnc(-c2ccc(/N=C\c3ccc(Cl)cc3)cc2)o1)Nc1ccc(Cl)cc1
inactive: 786-0 > 100 µM | A549 > 100 µM | HL-60 > 100 µM | HT-29 > 100 µM | K562 > 100 µM | KM12 > 100 µM | LOX IMVI > 100 µM | MOLT-4 > 100 µM | NCI-H226 > 100 µM | OVCAR-8 > 100 µM | RPMI-8226 41.7 µM | SF-295 > 100 µM | SK-MEL-5 > 100 µM | SK-OV-3 > 100 µM | SN12C > 100 µM | SR > 100 µM | SW-620 > 100 µM | TK-10 > 100 µM

CCOC12SC(Nc3ccc(C)cc3)=NN1C(=S)N(C)N=C2C (configuration not stated)
inactive: 786-0 > 100 µM | A549 > 100 µM | HL-60 > 100 µM | HT-29 > 100 µM | K562 > 100 µM | KM12 > 100 µM | LOX IMVI > 100 µM | MOLT-4 > 100 µM | NCI-H226 > 100 µM | OVCAR-5 > 100 µM | OVCAR-8 > 100 µM | RPMI-8226 > 100 µM | SF-295 > 100 µM | SK-MEL-5 > 100 µM | SN12C > 100 µM | SR > 100 µM | SW-620 > 100 µM

O=C(COC(=O)c1cccc2c(=O)c3ccccc3[nH]c12)Nc1ccccc1
inactive: 786-0 > 100 µM | A549 50.8 µM | HL-60 16.7 µM | HT-29 31.8 µM | K562 33.2 µM | KM12 21.1 µM | LOX IMVI 24.2 µM | MOLT-4 17.1 µM | NCI-H226 33.3 µM | OVCAR-8 37 µM | RPMI-8226 23.7 µM | SF-295 50.8 µM | SK-MEL-5 19.8 µM | SK-OV-3 > 100 µM | SN12C > 100 µM | SR 18.9 µM | SW-620 90.8 µM | TK-10 > 100 µM
